What all share (type): in vivo
Experiment [1] has as its system Alopecurus myosuroides. In words: Pre-emergence herbicidal activity against ALOMY. The following applies: Alopecurus myosuroides, 504 h, dosage 80 g/ha, scored visually after about 3 weeks vs untreated controls (100% = plants have died, 0% = like control plants). A digest of the protocol:
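Seeds sown in pots and covered with soil; WP or EC formulations applied to the soil surface pre-emergence as aqueous suspension/emulsion with 0.5% additive at 600 l/ha water. Kept in greenhouse about 3 weeks, then effect scored visually as % versus untreated controls (100% = plants died, 0% = like control).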

The test system of experiment [2] is Stellaria media. In words: Pre-emergence herbicidal activity against STEME. To be noted: Stellaria media, 504 h, dosage 80 g/ha. A digest of the protocol:
(§1)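 Weed seeds sown in pots and covered with soil, then WP or EC formulations sprayed onto the soil surface as aqueous suspension/emulsion with 0.5% additive at 600 l/ha water. Kept in greenhouse; visual percent effect versus untreated controls scored after about 3 weeks (100% = plants dead).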

The subject of experiment [3] is Veronica persica. In words: Pre-emergence herbicidal activity against VERPE. The following applies: Veronica persica, 504 h, dosage 80 g/ha. In outline: as §1
The subject of experiment [4] is Alopecurus myosuroides. In words: Post-emergence herbicidal activity against ALOMY. To be noted: Alopecurus myosuroides, 504 h, dosage 320 g/ha, rated about 3 weeks after treatment. A digest of the protocol: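 Greenhouse-grown plants treated at one-leaf stage, 2 to 3 weeks after sowing, with WP or EC formulations sprayed as aqueous suspension/emulsion plus 0.5% additive at 600 l/ha. Activity rated visually about 3 weeks later versus untreated controls (100% = plants dead, 0% = like control).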

Experiment [5] deals with Amaranthus retroflexus. The experiment is described as follows: Post-emergence herbicidal activity against AMARE. To be noted: Amaranthus retroflexus, 504 h, dosage 320 g/ha, rated about 3 weeks after treatment. A digest of the protocol:
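Greenhouse pots of sandy loam; plants sprayed at one-leaf stage, 2 to 3 weeks after sowing, with WP or EC formulations in water plus 0.5% additive at 600 l/ha. Activity rated visually after about 3 weeks against untreated controls (100% = plants dead, 0% = like control).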

For experiment [6], the system named is Pharbitis purpurea. The experiment is described as follows: Post-emergence herbicidal activity against PHBPU. To be noted: Ipomoea purpurea, 504 h, dosage 320 g/ha, rated about 3 weeks after treatment. A digest of the protocol: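 Greenhouse-grown plants sprayed post-emergence at the one-leaf stage, 2 to 3 weeks after sowing, with WP or EC formulations plus 0.5% additive at 600 l/ha water. Activity rated visually after about 3 weeks versus untreated controls (100% = plants dead, 0% = like control).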

Experiment [7] relates to Stellaria media. In words: Post-emergence herbicidal activity against STEME. The following applies: Stellaria media, 504 h, dosage 320 g/ha, rated about 3 weeks after treatment. In outline:
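Greenhouse plants treated at one-leaf stage, 2–3 weeks after sowing, by spraying WP or EC formulations with 0.5% additive at 600 l/ha water. Visual rating about 3 weeks later versus untreated controls (100% = plants dead, 0% = like controls).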

The subject of experiment [8] is Hordeum murinum. In words: Post-emergence herbicidal activity against HORMU. The following applies: Hordeum murinum, 504 h, dosage 320 g/ha. A digest of the protocol:
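Greenhouse pot plants sprayed post-emergence at one-leaf stage (2-3 weeks after sowing) with WP or EC formulations, 0.5% additive, 600 l/ha water. Visual rating about 3 weeks later versus untreated controls: 100% = plants dead, 0% = like control.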

Usually pest or weed control stands for the degree to which the test organism was suppressed or injured, in per cent. The low end stands for weak suppression, the high end for strong suppression. As for `C=C[C@]1(C(=O)N[C@H]2CO[C@@H](C(=O)OC)C2)CC(c2cc(F)cc(F)c2)=NO1` (mixture of isomers) [I-10, methyl cis-4-[[(5S)-3-(3,5-difluorophenyl)-5-vinyl-4H-isoxazole-5-carbonyl]amino]tetrahydrofuran-2-carboxylate], the pest or weed control at 80 g/ha in experiment [1], in experiment [2] and in experiment [3] was 100% in each case. In addition, the pest or weed control at 320 g/ha came to 100% in experiment [4]; 80% in experiment [5]; 90% in experiment [6]; 90% in experiment [7]; 100% in experiment [8].
